Reference: article PMC9573548, “Metabolic Profiling by GC-MS, In Vitro Biological Potential, and In Silico Molecular Docking Studies of Verbena officinalis” (Molecules, 2022)

System: T1, urease
T1 construct: jack bean is only the usual preparation; docking model 1E9Z (Helicobacter pylori) is not the assayed enzyme
Experiment: indophenol (phenol-hypochlorite) ammonia assay, […] nm
Assay type: biochemical
Conditions: urea substrate (2.25% solution), phosphate buffer pH 7.0, room temperature, 15 min preincubation

Q: For `NC(=O)NO` [hydroxy urea], which “Urease IC50” value is on record?
A: 9.8 ± 1.20 µg/mL
